According to paper PMC7278776, “Multidrug Resistance Modulation Activity of Silybin Derivatives and Their Anti-Inflammatory Potential” (Antioxidants, 2020):
Where two headings read alike, the source gives them in different places. Marks after values point to notes of the source that are not given here.

Experiments:
ABCB6 = ABCB6 mRNA expression (real-time PCR); type: cell-based, human; conditions: A2780/DOX
Protocol: (§1) The A2780/DOX cell line was seeded into 5 cm Petri dishes with DMEM medium at 1 × 10^5 cell/mL. […] After 48 h of treatment, the cells were washed with PBS and harvested using the standard trypsin-EDTA procedure. The harvested cells were centrifuged (3200× g; 10 min, 4 °C). The supernatant was discarded, and the pellets were washed with 1.5 mL of cooled PBS (5400× g; 10 min, 4 °C). The washing step was repeated with 1 mL of PBS and the cells were centrifuged again (10,000× g; 3 min, 4 °C). Afterwards, the pellets were resuspended in 1 mL of Trizol (Invitrogen, Carlsbad, CA, USA) and transferred into pre-cooled RNase-free microfuge tubes. The samples were stored at −80 °C.
(§2) A Quant-iT RiboGreen RNA Assay Kit (Invitrogen) was used to determine the RNA concentration using the Infinite M200 plate reader (Tecan, Männedor, Switzerland). The cDNA was prepared from 0.5 µg of total RNA using a RevertAid First Strand Synthesis cDNA Kit (MBI Fermentas, Vilnius, Lithuania). The amplification of the ubiquitin C gene fragment was used to determine the quality of cDNA.
(§3) The experiment was performed using the ViiA7 Real-Time polymerase chain reaction (PCR) System (Life Technologies, Camarillo, CA, USA) with a 384-well block. Before quantitative real-time PCR, the master mix was prepared by mixing 2 µL of 8 × diluted cDNA, 1.75 µL of RNase free water, 1 µL of 5 × HotFIREPol Probe quantitative PCR Mix Plus (Solis Biodyne, Tartu, Estonia) and 0.25 µL of specific 20 × TaqMan Gene Expression Assay (Life Technologies), giving 5 µL of final reaction volume. Cycling parameters were: initial hold at 50 °C for 2 min and denaturation at 95 °C for 10 min, followed by 45 cycles consisting of denaturation at 95 °C for 15 s and annealing/extension at 60 °C for 1 min. After each extension phase, the fluorescence values were acquired. Duplicate samples were used for measurement and samples with a standard deviation of duplicates > 1.0 cycle threshold (Ct) were re-analyzed. The real time PCR procedure was maintained according to MIQE (Minimum information for publication of quantitative real-time PCR experiments) guidelines. The software REST 2009 (Qiagen, Hilden, Germany) served to compare relative transcript levels of genes in the cell line.

acetylcholinesterase = acetylcholinesterase (Homo sapiens, UniProt P22303); assay: Acetylcholinesterase activity, Ellman colorimetric method; type: biochemical
Protocol: The activity of acetylcholinesterase was measured by the Ellman colorimetric method. A stock solution of acetylcholinesterase was prepared in PBS (0.057 U/mL), 100× diluted and stored in a freezer (−20 °C). Further, the solution of DTNB (5,5′-dithio-bis-2-nitrobenzoic acid, 50 µM) and ATC ([…], 50 µM) was prepared. […] Afterwards, 10 µL of DNTB and ATC solution was added, and the reaction was launched. After the addition of reagents, the absorbance at 412 nm was recorded for 10 min every minute.

ABCC5 = ABCC5 mRNA expression (real-time PCR); type: cell-based, human; conditions: A2780/DOX, 10 µM combined with doxorubicin at IC25, 48 h
Protocol: (§4) The A2780/DOX cell line was seeded into 5 cm Petri dishes with DMEM medium at 1 × 10^5 cell/mL. After 24 h, the dishes were washed with PBS and new DMEM medium supplemented with doxorubicin (at concentration equal to IC25) and samples (10 µM) were added. After 48 h of treatment, the cells were washed with PBS and harvested using the standard trypsin-EDTA procedure. The harvested cells were centrifuged (3200× g; 10 min, 4 °C). The supernatant was discarded, and the pellets were washed with 1.5 mL of cooled PBS (5400× g; 10 min, 4 °C). The washing step was repeated with 1 mL of PBS and the cells were centrifuged again (10,000× g; 3 min, 4 °C). Afterwards, the pellets were resuspended in 1 mL of Trizol (Invitrogen, Carlsbad, CA, USA) and transferred into pre-cooled RNase-free microfuge tubes. The samples were stored at −80 °C.
as §2, §3

ABCA2 = ABCA2 mRNA expression (real-time PCR); type: cell-based, human; conditions: A2780/DOX, 10 µM combined with doxorubicin at IC25, 48 h
Protocol: as §4, §2, §3

A2780/DOX = assay: Sensitization of the MDR cell line to doxorubicin; type: cell-based, human
Protocol: A multidrug resistant ovarian sub-line resistant to doxorubicin (A2780/DOX, Sigma-Aldrich) was cultivated in DMEM medium with 10% FBS and 1 × antibiotic antimycotic solution. Every other passage, doxorubicin at the final concentration of 0.1 µM was added to the culture medium to maintain the resistance of the cell line. To perform experiments, the cells were seeded at 1 × 10^5 cell/mL into the wells of a 96-well plate and incubated for 24 h. Afterwards, the cells were washed with PBS and fresh DMEM medium with tested compounds at 10, 20 and 30 µM were added to each well, except for the control wells. Subsequently, the cells were exposed to increasing concentrations of doxorubicin (0.6–20 µM) for 72 h. After incubation, the resazurin assay was performed as described above. The IC50 of doxorubicin was calculated for both the control and the samples and the fold change was counted up. […] The fold change lower than 1 means an antagonistic effect. (1) FOLD CHANGE=IC50 value of DOX cells treated with chemotherapeutic /IC50 value of DOX cells treated with chemotherapeutic and compound

ABCA5 = ABCA5 mRNA expression (real-time PCR); type: cell-based, human; conditions: A2780/DOX
Protocol: as §4, §2, §3

IL-6 = IL-6 release by LPS-induced macrophages (ELISA); type: cell-based, mouse; conditions: for IL-6 (pg/mL): untreated LPS control 1148 ± 35
Protocol: To determine the level of inflammatory cytokine IL-6, macrophages were cultivated with LPS (1 µg/mL) and the tested compounds (7–50 µM) for 6 h. After incubation, the plates were centrifuged (1000× g; 10 min, 4 °C) and then the medium was removed and frozen to −80 °C. Prior to the detection, the samples were diluted in ELISA diluent in a 1:10 ratio. Production of the cytokine was determined by uncoated ELISA performed according to the manufacturer’s instructions.

ABCD2 = ABCD2 mRNA expression (real-time PCR); type: cell-based, human; conditions: A2780/DOX
Protocol: as §1, §2, §3

ABCA1 = ABCA1 mRNA expression (real-time PCR); type: cell-based, human; conditions: A2780/DOX
Protocol: as §4, §2, §3

HepG2 cells = assay: CAA (cellular antioxidant activity) assay; type: cell-based; conditions: Homo sapiens
Protocol: For the CAA assay, human hepatocellular carcinoma HepG2 cells (ATCC, Manassas, VA, USA) were seeded into a 96-well microplate at a density of 1 × 10^5 cells/well in EMEM medium supplemented with 10% of FBS, 2 mM L-glutamine and 1 × antibiotic antimycotic solution. The cells were maintained in a CO2 incubator (5% CO2, 37 °C, Memmert GmbH & Co, Büchenbach, Germany). The following day, the plates were washed with PBS and new fresh DMEM was added into each well supplemented with tested samples in the concentration range of 6.25–100 µM and fluorescent probe DCFH-DA (12.5 mg/L). After 1 h of incubation at 37 °C, the medium was replaced with AAPH solution (0.16 mg/mL in PBS), except for the negative control, where PBS was added instead. Directly, the fluorescence was recorded for 2 h in 5 min steps at 485/540 nm excitation/emission (ex./em.).

ABCC10 = ABCC10 mRNA expression (real-time PCR); type: cell-based, human; conditions: A2780/DOX
Protocol: as §1, §2, §3

[1] = 10 µM combined with doxorubicin at IC25, 48 h
[2] = 10 µM, 48 h, without doxorubicin
[3] = HepG2, read-out: CAA, concentration necessary to halve the fluorescence response (IC50)

Sequence of acetylcholinesterase (P22303 32-614, species assumed): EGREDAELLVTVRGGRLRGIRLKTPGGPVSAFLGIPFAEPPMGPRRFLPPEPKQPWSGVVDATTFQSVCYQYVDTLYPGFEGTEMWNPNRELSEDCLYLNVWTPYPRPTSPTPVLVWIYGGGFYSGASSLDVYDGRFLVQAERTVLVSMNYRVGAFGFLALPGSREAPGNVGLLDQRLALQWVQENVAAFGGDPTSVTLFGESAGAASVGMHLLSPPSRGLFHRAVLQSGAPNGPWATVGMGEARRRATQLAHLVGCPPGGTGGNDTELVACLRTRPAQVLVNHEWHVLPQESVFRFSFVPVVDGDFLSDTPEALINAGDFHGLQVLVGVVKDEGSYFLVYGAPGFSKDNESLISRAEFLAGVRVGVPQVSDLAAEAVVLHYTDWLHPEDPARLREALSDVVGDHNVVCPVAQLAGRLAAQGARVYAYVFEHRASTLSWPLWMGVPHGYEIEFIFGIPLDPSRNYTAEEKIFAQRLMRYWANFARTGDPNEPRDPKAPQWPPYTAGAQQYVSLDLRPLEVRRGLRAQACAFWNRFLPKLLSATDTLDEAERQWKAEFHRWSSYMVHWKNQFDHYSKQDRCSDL

SMILES | ABCB6 Expression Difference (ABCB6; [1]) | IC50 (acetylcholinesterase) [µM] | ABCC5 Expression Difference (ABCC5) | ABCA2 Expression Difference (ABCA2) | Doxorubicin-sensitization rate (ratio of IC50 of doxorubicin and doxorubicin + tested compound) (A2780/DOX; compound 10 µM) | ABCA5 Expression Difference (ABCA5; [1]) | IL-6 (pg/mL) (IL-6; compound 7 µM) | IL-6 (pg/mL) (IL-6; compound 15 µM) | IL-6 (pg/mL) (IL-6; compound 50 µM) | ABCD2 Expression Difference (ABCD2; [1]) | ABCD2 Treated vs. Untreated (ABCD2; [1]) | ABCD2 Expression Difference (ABCD2; [2]) | ABCA1 Expression Difference (ABCA1; [1]) | IC50 (HepG2 cells; [3]) [µM] | ABCC10 Expression Difference (ABCC10; [1]) | ABCC10 Expression Difference (ABCC10; [2]) | ABCD2 Treated vs. Untreated (ABCD2; [2]) | other results
COc1cc(C2Oc3cc(-c4oc5cc(O)cc(O)c5c(=O)c4O)ccc3OC2CO)ccc1O (centres unmarked) [Dehydrosilybin AB, 2,3-dehydrosilybin] | 1.262 | 2.7 ± 0.3 | 1.288 | 1.046 | (2.4 ± 0.2) × | 1.254 | 997 ± 41 ^d pg/mL | 441 ± 19 ^d pg/mL | 0 ± 0 ^a pg/mL | 0.712 | DOWN | 1.199 | 3.122 | 9.2 ± 0.5 | 1.323 | 1.471 | – | inhibition of acetylcholinesterase activity relative to single isomers (acetylcholinesterase): 2.5 ×; IL-6 (pg/mL) (IL-6; compound 50 µM, listed as dehydrosilybin AB): under the detection limit of the ELISA assay; ABCA1 Expression Difference (ABCA1; [2]): 1.803
COc1cc([C@@H]2Oc3cc([C@H]4Oc5cc(O)cc(O)c5C(=O)[C@@H]4O)ccc3O[C@H]2CO)ccc1O [Silybin B, silybin B] | – | 83.7 ± 6.4 | 1.473 | 0.903 | (1.4 ± 0.1) × | 1.821 | 297 ± 23 ^a pg/mL | 166 ± 6 ^b pg/mL | 37 ± 2 ^a pg/mL | 0.448 | DOWN | 0.322 | 2.415 | – | 1.349 | 0.340 | DOWN | ABCB6 Expression Difference (ABCB6; [2]): 0.396; ABCB6 Treated vs. Untreated (ABCB6; [2]): DOWN; ABCA2 Treated vs. Untreated (ABCA2): DOWN; Doxorubicin-sensitization rate (ratio of IC50 of doxorubicin and doxorubicin + tested compound) (A2780/DOX; compound 20 µM): (1.5 ± 0.2) ×; Doxorubicin-sensitization rate (ratio of IC50 of doxorubicin and doxorubicin + tested compound) (A2780/DOX; compound 30 µM): (1.8 ± 0.1) ×; Doxorubicin-sensitization rate (ratio of IC50 of doxorubicin and doxorubicin + tested compound) (A2780/DOX; compound 50 µM): (3.3 ± 0.4) ×; ABCA5 Expression Difference (ABCA5; [2]): 0.356; ABCA5 Treated vs. Untreated (ABCA5; [2]): DOWN; IC50 (IL-6; Mus musculus, RAW264.7, RAW 264.7, LPS + compound 6 h, read-out: IL-6, concentration necessary to halve the release (IC50)): 5.2 ± 0.2 µM; IC50 (HepG2 cells; HepG2, DCFH-DA/AAPH, read-out: CAA, concentration necessary to halve the fluorescence response (IC50)): 8.9 ± 0.3 µM; ABCC10 Treated vs. Untreated (ABCC10; [2]): DOWN
COc1cc([C@@H]2Oc3cc(-c4oc5cc(O)cc(O)c5c(=O)c4O)ccc3O[C@H]2CO)ccc1O [Dehydrosilybin B, 2,3-dehydrosilybin B] | 1.343 | 6.8 ± 0.8 | 1.385 | 1.078 | (2.0 ± 0.1) × | 1.707 | 582 ± 19 ^c pg/mL | 301 ± 9 ^c pg/mL | 122 ± 3 ^b,c pg/mL | 0.733 | DOWN | 0.860 | 4.412 | 12.1 ± 0.4 | 1.618 | 1.107 | DOWN | –
